Tests used:
[1] = tested on: anti-FVIII antibody titers; assay: FVIII-specific tolerance with OPLS, OPDS or Dex, rechallenge with free FVIII (FIG. 11); details: s.c. co-administration with FVIII, then s.c. free FVIII
[2] = tested on: anti-GAA antibody titers; assay: Effect of OPLS on immunogenicity of GAA protein; format: in vivo, mice; details: 5 mg dose with 1 μg GAA, 4 weekly s.c., 2 week rest
Description: Materials and Methods: GAA Source: Full length recombinant rhGAA was produced in Human Kidney Embryo Cells for our use by Creative Biomart (Shirley, N.Y.); OPLS Source: Sigma-Aldrich (St. Louis, Mo.). n=8 animals/group were immunized with 4 weekly s.c. injections of 1 μg of GAA in 100 μl of either sterile TRIS for the free group or in 5 mg OPLS in sterile TRIS for the OPLS-GAA group. A group of 8 mice will receive the same dose of CBrhGAA in 5 mg O-phospho-D-serine (OPDS) solution as a negative control. After a 2 week rest period, a blood sample from the saphenous vein will be collected. Samples were stored at −80° C. until analysis. These samples were then analyzed for anti-GAA Ab titers. Anti-GAA antibody titers were measured as follows: ELISA plate (maxisorp, NUNC) was coated with 50 μl of 5 μg/ml of sterile rhGAA in sodium carbonate-bicarbonate buffer pH =9.6. The plate was incubated overnight at 4° C. The plate was washed six times with PBS containing 0.05% Tween 20 (PBS-T, 250 μl/well) using an automated plate washer. The plate was blocked with PBS containing 1% BSA (300 μl/well) as the block buffer for 2 hr at 37° C. […] The reaction was stopped with 2 N sulfuric acid and read immediately at 450 nm using a micro-plate reader. The titer values are quantitated using a statistical endpoint method as described by Frey et al. Control plasma samples were run on each plate. […]

[3] = Rituximab pharmacokinetics after iv and sc administration in isotonic and hypertonic buffers; format: in vivo, SW mice
Description: Preparation and characterization of injection buffers: One isotonic and six different hypertonic TRIS buffers were prepared to investigate the effects of hypertonicity and buffer composition on rituximab lymphatic uptake and plasma exposure (Table 1.).
Isotonic TRIS buffer was prepared using 25 mM TRIS and 150 mM NaCl (Buffer A). Hypertonic (600 mmol/kg) TRIS buffers were prepared with 25 mM of TRIS containing 300 mM NaCl (Buffer B). Buffers “C” and “E” contained NaCl as well as 20 mM of OPLS or Mannitol. To further delineate the effects of buffer composition on lymphatic uptake, we prepared two buffers at 600 mmol/kg with a 270 mM of OPLS (Buffer D) or mannitol (Buffer F). […] Osmolarity was measured using a 5500 Vapor Pressure Osmometer (Wescore Inc. Logen, Utah, USA) according to manufacturer's instruction.
Rituximab pharmacokinetics studies: 126 male SW mice were divided into 7 groups. […] The disposition of RXT will be determined from the iv PK profile and convoluted with the absorption data generated from the sc studies. […] Immediately before analysis; the inguinal lymph nodes were homogenized in 300 μl of PBS on ice and then analyzed.
Analysis of RXT in plasma and lymph node samples: Analysis of plasma and lymph node samples from PK studies was done with a standard ELISA. […] Optical density at 450 nm was measured using a plate reader.

[4] = tested on: anti-GAA total titers; assay: OPLS-GAA sequential administration study; format: in vivo, Mice
Description: This examples describes OPLS-GAA sequential administration study. To determine if OPLS can exert its immunomodulatory effects on the immune response to GAA when the two are administered in separate spaced injections, at the same injection site the following experiments were carried out. Mice (n=6 animals/group) were immunized with 4 weekly sc injections as follows. One group of animals received one single combined injection of 5 mg OPLS and 1 μg rhGAA(100 μl volume). Recombinant human GAA was produced by Creative Biomart. The second group received one injection of 5 mg OPLS (100 μl volume) then after a 5 minute wait they received a second injection of 1 μg rhGAA in sterile TRIS (100 μl volume) in the same injection site. The final control group received one injection of sterile TRIS (100 μl volume) then after a 5 minute wait they received a second injection of 1 μg rhGAA in sterile TRIS (100 μl volume) in the same injection site. After a two week rest period a saphenous blood sample was collected. All of the mice were then rechallenged with 4 weekly injections of 1 μg of rhGAA in 100 μl sterile TRIS (one single injection). Analysis was done by ELISA for total titers. The mean free GAA after 6 weeks was 3135±910, When co-administered, the GAA was 787±155, and when administered separately (sequentially), the GAA was 926±202 (FIG. 26). After re-challenge, terminal sampling was done at week 11. The mean free GAA after 11 weeks was 8775±2363, When co-administered, the GAA was 895±335, and when administered separately (sequentially), the GAA was 1884±761. […] Either administration method was able to induce a hypo-responsiveness towards GAA.

With `N[C@H](COP(=O)(O)O)C(=O)O` [OPDS, O-Phospho-D-Serine, reference compound] the “FVIII-specific hypo-responsiveness upon rechallenge” value [1] was “did not” and the “Anti-GAA antibody titers vs GAA alone” value [2] was “lower”.

In the case of “rituximab: Commercial preparation of rituximab (RXT)”, the “sc bioavailability of rituximab” value ([3]; 1 μg/g in isotonic Buffer A) is reported as 0.29 and the “Fraction of the dose taken up by the lymph nodes” value ([3]; 1 μg/g sc in isotonic Buffer A, estimated) is reported as 0.05.

With “free GAA: Full length recombinant rhGAA produced in Human Kidney Embryo Cells by Creative Biomart” the “Total titers (ELISA), week 11 after re-challenge” value ([4]; control group, rechallenge 4 weekly 1 μg rhGAA) was 8775±2363 and the “Total titers (ELISA), week 6” value ([4]; control: TRIS then 1 μg rhGAA 5 min later, same site, 4 weekly sc) was 3135±910.

Source: patent US20220016241A1, “COMPOSITIONS AND METHODS FOR REDUCING ANTIGEN-SPECIFIC IMMUNOGENICITY” (The Research Foundation for The State University of New York, priority 2013, published 2022)
